Paper PMC9240925, “Mechanistic study of the solubilization effect of basic amino acids on a poorly water-soluble drug” (RSC Advances, 2022)
In brackets after ≈: the same amount, converted by molar mass. Where two headings read alike, the source gives them in different places.

How the values were obtained:
[1] = Differential scanning calorimetry, glass transition; assay type: physicochemical; settings: for Tg, Gordon–Taylor (glass transition temperature): calculated by Gordon–Taylor equation with crystalline densities
Procedure: DSC was performed using a Q20 instrument V24.7 build 119 thermal analysis system with an intercooler system (Elstree, United Kingdom). The DSC system was calibrated and validated using indium (average melting temperature 156.36 ± 0.03 °C and enthalpy 29.81 ± 0.05 J g^−1). Powder samples of 1 to 5 mg were weighed in T-zero aluminum pans with T-zero lids (TA Instruments – A Division of Waters Ltd, Centennial Avenue, Elstree, Hertfordshire, United Kingdom). […] All results were analyzed using the TRIOS software for the phases transitions to determine the glass transition temperature (Tg) and melting point (Tm).
Indomethacin (as received) was analyzed in two heating cycles to produce an amorphous form. The first cycle was to measure the Tm of the crystalline form and the second cycle was for obtaining the Tg of amorphous indomethacin. The freeze-dried complexes and crystalline arginine, histidine and lysine were undergone one heating cycle to determine the Tg or Tm. The Tg described by Gordon–Taylor[39] was determined for drug–basic amino acids binary systems using the given equations below.
The Gordon–Taylor equation from composite glasses:3 [drawing 3]
T g(mix) is the glass transition temperature of a binary mixture, w1 and w2 are the weight fraction and Tg1 and Tg2 are the glass transitions temperature of individual compound in the mixture, K is typically considered an empirical constant:4 [drawing 4] where p1 and p2 are the powder densities of the single amorphous components. The crystalline densities of compounds (pIND = 1.379 g cm^−3pARG = 1.325 g cm^−3, pHIS = 1.412 g cm^−3 and pLYS = 1.237 g cm^−3) were used as approximation because small differences in density were reported between crystalline and amorphous form of small molecular compound.[9]

[2] = cited from earlier work
[3] = parameters: method as in as printed in each cell: ref 60, 62, 63, 10, 64; settings: cited from earlier work
[4] = parameters: method as in ref 34 = [34]; Robert C. W. , Handbook of Chemistry and Physics , ed. R. C. Weast , CRC Press , Ohio , 55th edn, 1975; settings: at 25 °C; cited from earlier work
[5] = pH-solubility study, shake flask method; assay type: physicochemical; settings: mean ± SD n = 3
Procedure: The samples were then filtered using a membrane filter (syringe filter, 0.45 μm sterile). The filtered solutions were diluted within the range of calibration curves and analyzed spectrophotometrically at 260 nm.

[6] = Phase solubility diagrams of indomethacin in basic amino acid solutions and complexation efficiency; assay type: physicochemical; settings: 30 °C
Procedure: After equilibration, the mixtures were centrifuged at 3750 rpm for 10 minutes (Beckman Coulter Allegra X-12 Series). […] The supernatant was filtered via a membrane filter (syringe filter, 0.45 μm sterile). The solutions were then diluted within the calibration curve range and analyzed spectrophotometrically at 260 nm. The precipitates (solid phase) were filtered again using filter paper (Whatman Grade 3). The solid phase was dried in an oven at 70 °C for 30 minutes, then examined using FTIR.
The complexation or solubilizing efficiency (CE)[36] was calculated from the slope of the linear drug–amino acid phase solubility (PS) diagram using the following eqn (1):1 [drawing 1] where K1:1 indicates to the stability constant, which is used to compare the affinity of drug to different amino acids. S0 refers to the intrinsic solubility, [drug–amino acid complex] is the concentration of dissolved drug–amino acid complex, [amino acid] is the concentration of dissolved free amino acid and slope is the slope of the phase solubility diagram.

[7] = parameters: method as in ref 42 = [42]; Archontaki H. A. Kinetic Study on the Degradation of lndomethacin in Alkaline Aqueous Solutions by Derivative Ultraviolet Spectrophotometry Analyst 1995 120 1 8; settings: pH = 13; cited from earlier work
[8] = parameters: method as in ref 34 = [34]; Robert C. W. , Handbook of Chemistry and Physics , ed. R. C. Weast , CRC Press , Ohio , 55th edn, 1975; settings: cited from earlier work
[9] = Physical and chemical stability of indomethacin in solution (UV-Vis); assay type: physicochemical
Procedure: Spectra were collected using the UV Lambda software over the wavelength range of 400 nm–200 nm. The same solvent without the drug/amino acid was used as the reference. Samples were analyzed at identical conditions: slit width 1 nm, bandwidth 0.5 nm, pair cuvette cells 1 cm.
The results were recorded for samples stored over a week at ambient temperature (25 ± 1 °C). Chemical stability was confirmed by measuring the UV absorbance at 320 nm.

[10] = Drug content and chemical stability of freeze-dried mixtures by UV-Vis; assay type: physicochemical; settings: with all amino acids, peak position at 320 nm
Procedure: The resulting filtrates were frozen for 24 hours at −80 °C and then freeze-dried for 48 hours (LTE Scientific Lyotrap Freeze Dryer, Great Britain, Greenfield, Oldham) with the system temperature of −51 ± 2 °C, pressure of around 0.1 mbar and the vacuum pump operated at a flow rate of 21 m^3 h^−1. The freeze-dried samples were then transferred into a plastic vacuum desiccator containing phosphorous pentoxide desiccant (P2O5) at ambient temperature (22 ± 2 °C). Indomethacin–sodium salt was also produced for comparison purposes.
The freeze-dried samples were prepared by dissolving 10 mg freeze-dried materials in water in a 10 mL volumetric flask. The solutions were then diluted to concentrations that fall within the calibration curve and analyzed at 320 nm. The percentage drug content[37] was calculated by eqn (2)2 [drawing 2]

[11] = Hydrotropic solubilization in amino acid solutions at controlled pH; assay type: physicochemical
Procedure: The pH of the solutions was adjusted by adding 0.1 M hydrochloric acid and monitored with a pH meter (OXOID limited, England). Excess indomethacin was then added to the amino acid solutions. The suspension was stirred with a magnetic stirrer for 24 hours at 30 ± 2 °C or 45 ± 2 °C until it is equilibrated followed by adjusting the pH again. The samples were then filtered via a membrane filter (syringe filter, 0.45 μm sterile).

Structure (SMILES): N=C(N)NCCC[C@H](N)C(=O)O [Arginine, L-arginine]
- Tg, Gordon–Taylor (glass transition temperature) [1]: 55.0 °C

Structure (SMILES): NCC(=O)O [Glycine, glycine]
- pI (isoelectric point) [2]: 5.97

Structure (SMILES): N[C@@H](Cc1c[nH]cn1)C(=O)O [Histidine, L-histidine]
- pI (isoelectric point) [2]: 7.59
- Tg, lit. (glass transition temperature) [3]: 37.0 (ref. [63]) °C
- Tg, Gordon–Taylor (glass transition temperature) [1]: 37.0 °C
- Water solubility [4]: 4.20 g/100 mL

Structure (SMILES): COc1ccc2c(c1)c(CC(=O)O)c(C)n2C(=O)c1ccc(Cl)cc1 [Indomethacin]
- solubility at 24 h ([5]; 25 °C, simulated gastric fluid, thermodynamic from solid, 25 ± 2 °C, water pH 1.2, unionized form, read-out: Intrinsic solubility (S0)): 0.95 µM (≈ 0.34 µg/mL)
- solubility at 24 h ([5]; 25 ± 2 °C, water pH 6.3, ionized and unionized forms, read-out: Aqueous solubility (S)): 64.2 µM (≈ 23 µg/mL)
- solubility at 24 h ([5]; 30 °C, aqueous buffer, thermodynamic from solid, 30 ± 2 °C, water pH 6.3, ionized and unionized forms, read-out: Aqueous solubility (S)): 81.6 µM (≈ 29.2 µg/mL)
- solubility at 24 h ([5]; 30 ± 2 °C, water pH 1.2, unionized form, read-out: Intrinsic solubility (S0)): 1.18 µM (≈ 0.422 µg/mL)
- Phase solubility diagram type (Higuchi and Connors) ([6]; indomethacin in arginine solution above 250 mM): AN-type
- Phase solubility diagram type (Higuchi and Connors) ([6]; indomethacin in arginine solution below 250 mM): AL-type
- Phase solubility diagram type (Higuchi and Connors) ([6]; indomethacin in lysine solutions): Bs-type
- Tg, lit. (glass transition temperature) [3]: 42.0 (ref. [60]) °C
- Stability in solution of high pH [7]: rapidly hydrolyzed
- log p (partition coefficient) [8]: 4.05
- Tg, exp. (glass transition temperature) ([1]; DSC 5 °C/min, n = 3, IND melt quench, mixtures freeze-dried): 42.1 ± 0.5 °C
- Tg, Gordon–Taylor (glass transition temperature) [1]: 42.1 °C
- Stability in solution (UV absorbance) ([9]; arginine solution, pH 10.3): gradually degraded after 24 hours
- Stability in solution (UV absorbance) ([9]; basic amino acid solutions, pH 6.3 to 10.3, duration of experiment less than 24 hours): remains stable
- Stability in solution (UV absorbance) ([9]; histidine solution, pH 7.5): stable over a week
- Stability of indomethacin concentration in lysine aqueous solution on storage ([9]; lysine concentration between 27 and 37 mM (supersaturated, partial precipitation)): dropped after 1 day of storage
- Stability of indomethacin concentration in lysine aqueous solution on storage ([9]; lysine concentrations below 27 mM, examined for ten days): appears stable
- Stability in solution (UV absorbance) ([9]; lysine solution, pH 10): gradually degraded after 24 hours
- Water solubility [4]: 0.009 g/100 mL
- Chemical stability after freeze-drying [10]: chemically stable
- Solubility improvement of ionized indomethacin compared to aqueous solubility at same pH without histidine ([11]; 0.35 M histidine solution, pH 7): ~8 fold
- Solubility improvement of unionized indomethacin compared to intrinsic solubility in water ([11]; 1.5 M isoleucine solution, pH 1.2, 30 °C): ~25 fold
- Solubility improvement of unionized indomethacin compared to intrinsic solubility in water ([11]; 1.6 M arginine solution, pH 1.2, 30 °C): ~11 fold
- Solubility change of unionized indomethacin compared to intrinsic solubility in water ([11]; glycine solution, same concentration, pH 1.2, 30 °C): did not change

Structure (SMILES): CC[C@H](C)[C@H](N)C(=O)O [Isoleucine, L-isoleucine]
- pI (isoelectric point) [2]: 6.04
- log p (partition coefficient) [8]: −1.70
- Water solubility [4]: 0.41 g/100 mL

Structure (SMILES): NCCCC[C@H](N)C(=O)O [Lysine, L-lysine]
- pI (isoelectric point) [2]: 9.47
- Tg, lit. (glass transition temperature) [3]: 68.0 (ref. [63]) °C
- Tg, Gordon–Taylor (glass transition temperature) [1]: 68.0 °C
- Water solubility [4]: Very soluble
